The target in the experiment is T1, HSP90α protein (N-terminal) (Homo sapiens, UniProt P07900).
T1 construct: purchased BPS Bioscience #50298
As to the kind of experiment: HSP90α-binding fluorescent polarization (FP) assay, competition with BODIPY-labeled RNK04010. As to conditions: probe RNK04010 (BODIPY-labeled) 5 nM, 25° C. 300 min. As to the method: Binding of test compounds to HSP90α protein was measured by fluorescent polarization (FP) using the HSP90α (N-terminal) Assay Kit (BPS Bioscience, #50298), following the manufacturer's instructions, except as noted. Fluorescently labeled HSP90-binding compounds, either the provided FITC-geldanamycin (5 nM final concentration) or RNK04010, a triazolone-based HSP90-binding small molecule labeled with BODIPY through a piperizine-phenyl linker (5 nM final concentration) were employed. A 2.5-fold serial dilution of each test compound ranging from 20 μM to 5.2 nM was assayed for binding to HSP90α. After the final step of adding HSP90α protein to each assay well, plates were mixed by brief shaking, incubated at 25° C. for 120 min for FITC-geldanamycin or 300 min for RNK04010, and fluorescence was measured using a PerkinElmer EnVision Plate Reader.
HSP90α-binding fluorescent polarization (FP) assays measuring competition with the fluorescently labeled HSP90 binders, FITC-geldanamycin or RNK04010 (BODIPY-labeled), were applied to assess the binding capabilities of CHAMP molecules to HSP90.

A value given as a limit tells only on which side of the number the result lay.

Take `Cc1sc2c(c1C)C(c1ccc(Cl)cc1)=N[C@@H](CC(=O)N1CCC(CCN3CCC(Cc4ccc(-n5c(O)nnc5-c5cc(C(C)C)c(O)cc5O)cc4)CC3)CC1)c1nnc(C)n1-2` [Compound 55]: the IC50 (usually the concentration needed to halve the response being measured) is less than 100 nM.

For `Cc1sc2c(c1C)C(c1ccc(Cl)cc1)=N[C@@H](CC(=O)N[C@H](C)c1cccc(CN3CCC(Cc4ccc(-n5c(O)nnc5-c5cc(C(C)C)c(O)cc5O)cc4)CC3)c1)c1nnc(C)n1-2` [Compound 56], the 50% inhibitory concentration (IC50) was less than 100 nM. Then `CCNC(=O)c1nnc(-c2cc(CC)c(O)cc2O)n1-c1ccc(CN2CCN(CC3CCN(C(=O)C[C@@H]4N=C(c5ccc(Cl)cc5)c5c(sc(C)c5C)-n5c(C)nnc54)CC3)CC2)cc1` [Compound 59], with less than 100 nM; and `Cc1sc2c(c1C)C(c1ccc(Cl)cc1)=N[C@@H](CC(=O)NCc1ccc(CN3CCC(Cc4ccc(-n5c(O)nnc5-c5cc(C(C)C)c(O)cc5O)cc4)CC3)cc1)c1nnc(C)n1-2` [Compound 60], with less than 100 nM. To `Cc1sc2c(c1C)C(c1ccc(Cl)cc1)=N[C@@H](CC(=O)N(C)[C@@H](C)c1ccc(CN3CCC(Cc4ccc(-n5c(O)nnc5-c5cc(C(C)C)c(O)cc5O)cc4)CC3)cc1)c1nnc(C)n1-2` [Compound 63] belongs 100 to 1000 nM; to `CCN(Cc1ccc(OCCCNC(=O)C[C@@H]2N=C(c3ccc(Cl)cc3)c3c(sc(C)c3C)-n3c(C)nnc32)cc1)Cc1ccc(-n2c(C(=O)NCC(F)(F)F)nnc2-c2cc(C(C)C)c(O)cc2O)cc1` [Compound 72], 100 to 1000 nM; to `CCc1cc(-c2nnc(C(=O)NC(C)C)n2-c2ccc(CN3CCN(CC4CCN(C(=O)C[C@@H]5N=C(c6ccc(Cl)cc6)c6c(sc(C)c6C)-n6c(C)nnc65)CC4)CC3)cc2)c(O)cc1O` [Compound 74], less than 100 nM.

Take `Cc1sc2c(c1C)C(c1ccc(Cl)cc1)=N[C@@H](CC(=O)N1CCC(CN3CCN(Cc4ccc(-n5c(C(=O)NCCN6CCCCC6)nnc5-c5cc(C(C)C)c(O)cc5O)cc4)CC3)CC1)c1nnc(C)n1-2` [Compound 76]: the IC50 was less than 100 nM. To `Cc1sc2c(c1C)C(c1ccc(Cl)cc1)=N[C@@H](CC(=O)N1CCC(CN3CCN(Cc4ccc(-n5c(C(=O)NC(C)C)nnc5-c5cc(C(C)C)c(O)cc5O)cc4)CC3)CC1)c1nnc(C)n1-2` [Compound 77] belongs 100 to 1000 nM; to `Cc1sc2c(c1C)C(c1ccc(Cl)cc1)=N[C@@H](CC(=O)N1CCC(CN3CCN(Cc4ccc(-n5c(C(N)=O)nnc5-c5cc(C(C)C)c(O)cc5O)cc4)CC3)CC1)c1nnc(C)n1-2` [Compound 78], less than 100 nM; to `CCc1cc(-c2nnc(C(=O)NCCN3CCCCC3)n2-c2ccc(CN3CCN(CC4CCN(C(=O)C[C@@H]5N=C(c6ccc(Cl)cc6)c6c(sc(C)c6C)-n6c(C)nnc65)CC4)CC3)cc2)c(O)cc1O` [Compound 82], less than 100 nM.

In turn, `COc1cccc(-c2cc(C(=O)Nc3ccc(-c4ccc(OC5CCN(C)CC5)cc4OCCN(C)C(=O)CNC(=O)C[C@@H]4N=C(c5ccc(Cl)cc5)c5c(sc(C)c5C)-n5c(C)nnc54)cc3)ccc2OC)c1` [Compound 83] gave an IC50 greater than 1000 nM. `COc1cccc(-c2cc(C(=O)Nc3ccc(-c4ccc(OC5CCN(C(=O)C[C@@H]6N=C(c7ccc(Cl)cc7)c7c(sc(C)c7C)-n7c(C)nnc76)CC5)cc4OCCN(C)C)cc3)ccc2OC)c1` [Compound 84] displayed an IC50 greater than 1000 nM.

In turn, `CCN(CC)CCNC(=O)c1nnc(-c2cc(C(C)C)c(O)cc2O)n1-c1ccc(CN2CCN(CC3CCN(C(=O)C[C@@H]4N=C(c5ccc(Cl)cc5)c5c(sc(C)c5C)-n5c(C)nnc54)CC3)CC2)cc1` [Compound 90] showed an IC50 of less than 100 nM. In the case of `Cc1sc2c(c1C)C(c1ccc(Cl)cc1)=N[C@@H](CC(=O)N1CCC(CN3CCN(Cc4ccc(-n5c(C(=O)NC(C)C)nnc5-c5ccc(O)cc5O)cc4)CC3)CC1)c1nnc(C)n1-2` [Compound 91], the IC50 was less than 100 nM.

Take `CCCc1cc(-c2nnc(C(=O)NCCN3CCCCC3)n2-c2ccc(CN3CCN(CC4CCN(C(=O)C[C@@H]5N=C(c6ccc(Cl)cc6)c6c(sc(C)c6C)-n6c(C)nnc65)CC4)CC3)cc2)c(O)cc1O` [Compound 92]: the IC50 was less than 100 nM.

For the compound `Cc1cc(C(=O)N2Cc3ccc(CN4CCN(C(=O)C[C@@H]5N=C(c6ccc(Cl)cc6)c6c(sc(C)c6C)-n6c(C)nnc65)CC4)c(F)c3C2)c(O)cc1O` [Compound 99], the IC50 is greater than 1000 nM. `Cc1sc2c(c1C)C(c1ccc(Cl)cc1)=N[C@@H](CC(=O)N1CCN(Cc3ccc4c(c3F)CN(C(=O)c3cc(C(C)C)c(O)cc3O)C4)CC1)c1nnc(C)n1-2` [Compound 100] registered an IC50 of 100 to 1000 nM.

With `CCc1cc(-c2nnc(C(=O)NC3CC3)n2-c2ccc(CN3CCN(CC4CCN(C(=O)C[C@@H]5N=C(c6ccc(Cl)cc6)c6c(sc(C)c6C)-n6c(C)nnc65)CC4)CC3)cc2)c(O)cc1O` [Compound 101], the IC50 was less than 100 nM. Then `CCc1cc(-c2nnc(C(=O)NC(C)C)n2-c2ccc(CN3CCN(CC4CCN(C(=O)C[C@@H]5N=C(c6ccc(Cl)cc6)c6c(sc(C)c6C)-n6c(C)nnc65)CC4)CC3)cc2)c(O)cc1O` [Compound 102], with less than 100 nM; and `CCc1cc(-c2nnc(C(=O)NC(CC)CC)n2-c2ccc(CN3CCN(CC4CCN(C(=O)C[C@@H]5N=C(c6ccc(Cl)cc6)c6c(sc(C)c6C)-n6c(C)nnc65)CC4)CC3)cc2)c(O)cc1O` [Compound 103], with 100 to 1000 nM; and `CCc1cc(-c2nnc(C(=O)NC3(C)CC3)n2-c2ccc(CN3CCN(CC4CCN(C(=O)C[C@@H]5N=C(c6ccc(Cl)cc6)c6c(sc(C)c6C)-n6c(C)nnc65)CC4)CC3)cc2)c(O)cc1O` [Compound 104], with less than 100 nM.

Turning to `CCc1cc(-c2nnc(C(=O)NC(C)C(F)(F)F)n2-c2ccc(CN3CCN(CC4CCN(C(=O)C[C@@H]5N=C(c6ccc(Cl)cc6)c6c(sc(C)c6C)-n6c(C)nnc65)CC4)CC3)cc2)c(O)cc1O` (some centres unmarked) [Compound 105], the IC50 fell in the range of 100 to 1000 nM.

As for `Cc1sc2c(c1C)C(c1ccc(Cl)cc1)=N[C@@H](CC(=O)N1CCN(Cc3ccc(-n4c(O)nnc4-c4cc(C(C)C)c(O)cc4O)cc3)[C@H](C)C1)c1nnc(C)n1-2` [Compound 106], the IC50 was in the range of 100 to 1000 nM. To `Cc1sc2c(c1C)C(c1ccc(Cl)cc1)=N[C@@H](CC(=O)N1CCN(Cc3ccc(-n4c(O)nnc4-c4cc(C(C)C)c(O)cc4O)cc3)[C@@H](C)C1)c1nnc(C)n1-2` [Compound 107] belongs 100 to 1000 nM; to `COc1cc(O)c(C(C)C)cc1-c1nnc(O)n1-c1ccc(CN2CCN(CC3CCN(C(=O)C[C@@H]4N=C(c5ccc(Cl)cc5)c5c(sc(C)c5C)-n5c(C)nnc54)CC3)CC2)cc1` [Compound 108], greater than 1000 nM. Consider `Cc1sc2c(c1C)C(c1ccc(Cl)cc1)=N[C@@H](CC(=O)N1CCC(Cc3ccc(CN(C)Cc4ccc(-n5c(C(=O)NCC(F)(F)F)nnc5-c5cc(C(C)C)c(O)cc5O)cc4)cn3)CC1)c1nnc(C)n1-2` [Compound 109], for which the IC50 was 100 to 1000 nM.

For the compound `CCOc1cc(N2CCC(C(=O)NCc3ccc(-n4c(O)nnc4-c4ccc(O)cc4O)cc3)CC2)ccc1Nc1ncc2c(n1)N(C)c1ccccc1C(=O)N2C` [Compound 119], the IC50 was greater than 1000 nM.

Turning to `CCOc1cc(N2CCC(C(=O)NCc3ccc(-n4c(O)nnc4-c4cc(C)c(O)cc4O)cc3)CC2)ccc1Nc1ncc2c(n1)N(C)c1ccccc1C(=O)N2C` [Compound 120], the IC50 lay in the range of 100 to 1000 nM.

Compound `CCCc1cc(-c2nnc(O)n2-c2ccc(CNC(=O)C3CCN(c4ccc(Nc5ncc6c(n5)N(C)c5ccccc5C(=O)N6C)c(OCC)c4)CC3)cc2)c(O)cc1O` [Compound 121] came in with an IC50 greater than 1000 nM. `CCOc1cc(N2CCC(C(=O)NCc3ccc(-n4c(O)nnc4-c4cc(C(C)C)c(O)cc4O)cc3C(F)(F)F)CC2)ccc1Nc1ncc2c(n1)N(C)c1ccccc1C(=O)N2C` [Compound 122] returned an IC50 of 100 to 1000 nM. In turn, `CCOc1cc(N2CCC(C(=O)NCc3ccc(-n4c(O)nnc4-c4cc(CC)c(O)cc4O)cc3F)CC2)ccc1Nc1ncc2c(n1)N(C)c1ccccc1C(=O)N2C` [Compound 125] displayed an IC50 greater than 1000 nM.

Compound `CCCc1cc(-c2nnc(O)n2-c2ccc(CN3CCN(C(=O)C4CCN(c5ccc(Nc6ncc7c(n6)N(C)c6ccccc6C(=O)N7C)c(OCC)c5)CC4)CC3)cc2)c(O)cc1O` [Compound 128] came in with an IC50 of 100 to 1000 nM.

Turning to `CCOc1cc(N2CCC(C(=O)NCc3ccc(CN4CCC(Cc5ccc(-n6c(C(=O)NC(C)C)nnc6-c6cc(C(C)C)c(O)cc6O)cc5)CC4)cc3)CC2)ccc1Nc1ncc2c(n1)N(C)c1ccccc1C(=O)N2C` [Compound 130], the IC50 lay in the range of 100 to 1000 nM. In turn, `COc1cccc(-c2cc(C(=O)Nc3ccc(-c4ccc(OC5CCN(C(=O)C[C@@H]6N=C(c7ccc(Cl)cc7)c7c(sc(C)c7C)-n7c(C)nnc76)CC5)cc4O)cc3)ccc2OC)c1` [Compound 131] came in with an IC50 greater than 1000 nM.

`COc1cccc(-c2cc(C(=O)Nc3ccc(-c4ccc(OC5CCN(C(=O)CNC(=O)N[C@@H]6N=C(c7ccc(Cl)cc7)c7c(sc(C)c7C)-n7c(C)nnc76)CC5)cc4O)cc3)ccc2OC)c1` [Compound 132] displayed an IC50 greater than 1000 nM.

Consider `COc1cccc(-c2cc(C(=O)Nc3ccc(-c4ccc(OC5CCN(C)CC5)cc4COCN(C)CC[C@@H]4N=C(c5ccc(Cl)cc5)c5c(sc(C)c5C)-n5c(C)nnc54)cc3)ccc2OC)c1` [Compound 133], for which the concentration for half-maximal inhibition (IC50) is greater than 1000 nM.

Take `CCOc1cc(N2CCC(C(=O)N3CCN(CCOc4ccc(Nc5cc(-n6nc(C(F)(F)F)c7c6CC(C)(C)CC7=O)ccc5C(N)=O)cc4)CC3)CC2)ccc1Nc1ncc2c(n1)N(C)c1ccccc1C(=O)N2C` [Compound 149]: the IC50 was in the range of 100 to 1000 nM.

Source of the values: US20230391792A1, “METHODS AND COMPOSITIONS FOR TARGETED PROTEIN DEGRADATION” (Ranok Therapeutics (Hangzhou) Co. Ltd., priority 2020, published 2023).
